Data as given in ChEMBL document CHEMBL2057195, “Design and synthesis of a novel pyrrolidinyl pyrido pyrimidinone derivative as a potent inhibitor of PI3Kα and mTOR” (Bioorg Med Chem Lett, 2012).
pKi: −log10 of the molar value. Values after ≈ are worked out from the molar mass of the structure shown.

Assays:
[1] = molecular target: Serine/threonine-protein kinase mTOR (Homo sapiens, UniProt P42345)
[2] = physchem; conditions: buffer, pH 6.5
Description: Apparent kinetic solubility of the compound at pH 6.5

[3] = molecular target: Phosphatidylinositol 4,5-bisphosphate 3-kinase catalytic subunit alpha isoform (Mus musculus, UniProt P42337)
Description: Inhibition of mouse PI3Kalpha

[4] = Clearance in rat liver microsomes; format: ADME, Microsome; conditions: read-out: CLH
[5] = tested on: Liver microsomes; assay: Drug metabolism in human liver microsomes assessed as CYP450-mediated GSH adduct formation in presence of GSH; format: ADME, Microsome
[6] = tested on: Liver microsomes; assay: Drug metabolism in human liver microsomes assessed as CYP450-mediated GSH adduct formation in absence of GSH; format: ADME, Microsome
[7] = Cmax in rat at 5 mg/kg, po; format: ADME, organism-based; parameters: dose 5 mg/kg, route oral; conditions: in vivo
[8] = Volume of distribution at steady state in rat at 2 mg/kg, iv; format: ADME, organism-based; parameters: dose 2 mg/kg, route intravenous; conditions: in vivo, read-out: Vdss
[9] = Half life in rat at 2 mg/kg, iv; format: ADME, organism-based; parameters: dose 2 mg/kg, route intravenous; conditions: in vivo
[10] = Oral bioavailability in rat at 5 mg/kg; format: ADME, organism-based; conditions: in vivo
[11] = Clearance in rat at 2 mg/kg, iv; format: ADME, organism-based; parameters: dose 2 mg/kg, route intravenous; conditions: in vivo
[12] = tested on: Liver microsomes; assay: Drug metabolism in human liver microsomes assessed as CYP450-mediated 4-(2-amino-4-methyl-7-oxo-6-(1H-pyrazol-4-yl)pyrido[2,3-d]pyrimidin-8(7H)-ylamino)butanoic acid formation; format: ADME, Microsome

Phosphatidylinositol 4,5-bisphosphate 3-kinase catalytic subunit alpha isoform, sequence (P42337 whole entry, canonical isoform): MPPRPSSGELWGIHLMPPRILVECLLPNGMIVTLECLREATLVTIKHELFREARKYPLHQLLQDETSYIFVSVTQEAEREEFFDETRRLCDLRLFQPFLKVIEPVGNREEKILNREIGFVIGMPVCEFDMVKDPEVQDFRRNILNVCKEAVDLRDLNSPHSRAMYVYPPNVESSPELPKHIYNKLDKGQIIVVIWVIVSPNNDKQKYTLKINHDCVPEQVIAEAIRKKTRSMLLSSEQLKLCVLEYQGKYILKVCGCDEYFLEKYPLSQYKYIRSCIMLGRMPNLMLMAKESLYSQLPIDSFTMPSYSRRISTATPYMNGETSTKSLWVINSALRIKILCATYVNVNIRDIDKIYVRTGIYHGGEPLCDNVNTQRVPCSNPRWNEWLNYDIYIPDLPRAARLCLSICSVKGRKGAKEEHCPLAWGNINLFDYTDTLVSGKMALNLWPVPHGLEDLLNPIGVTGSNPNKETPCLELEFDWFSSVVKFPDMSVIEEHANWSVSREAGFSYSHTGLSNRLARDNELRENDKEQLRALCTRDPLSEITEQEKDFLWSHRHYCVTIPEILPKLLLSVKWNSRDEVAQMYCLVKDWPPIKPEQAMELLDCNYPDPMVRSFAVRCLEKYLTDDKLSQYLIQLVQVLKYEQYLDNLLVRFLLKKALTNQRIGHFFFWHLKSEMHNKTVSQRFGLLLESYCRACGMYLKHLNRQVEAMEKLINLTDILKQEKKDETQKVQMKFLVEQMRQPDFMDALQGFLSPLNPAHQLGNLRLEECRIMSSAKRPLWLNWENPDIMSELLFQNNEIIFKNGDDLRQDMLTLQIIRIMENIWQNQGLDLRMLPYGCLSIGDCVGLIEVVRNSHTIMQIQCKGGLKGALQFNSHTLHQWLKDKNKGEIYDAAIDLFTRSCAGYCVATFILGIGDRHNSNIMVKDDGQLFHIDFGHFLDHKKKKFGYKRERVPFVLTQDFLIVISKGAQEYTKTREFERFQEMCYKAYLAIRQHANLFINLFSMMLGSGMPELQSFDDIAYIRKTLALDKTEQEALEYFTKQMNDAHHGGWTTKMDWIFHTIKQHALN

COc1ccc(-c2cc3c(C)nc(N)nc3n(C3CCCC3)c2=O)cn1
pKi [1]: 6.85 | solubility kinetic [2]: 3.94 µM (≈ 1.38 µg/mL) | pKi [3]: 8.81

COc1ccc(-c2cc3c(C)nc(N)nc3n(C3CCC3)c2=O)cn1
pKi [1]: 7.12 | solubility kinetic [2]: 11.1 µM (≈ 3.74 µg/mL)

Cc1nc(N)nc2c1cc(-c1cn[nH]c1)c(=O)n2C1CCC1
pKi [1]: 7.29 | solubility kinetic [2]: 13 µM (≈ 3.85 µg/mL) | pKi [3]: 8.15

COc1ccc(-c2cc3c(C)nc(N)nc3n(C3CC3)c2=O)cn1
solubility kinetic [2]: 16.2 µM (≈ 5.24 µg/mL) | pKi [3]: 7.59

Cc1nc(N)nc2c1cc(-c1cn[nH]c1)c(=O)n2C1CC1
pKi [1]: 6.72 | solubility kinetic [2]: 16.7 µM (≈ 4.71 µg/mL) | pKi [3]: 7.44

Cc1nc(N)nc2c1cc(-c1cn[nH]c1)c(=O)n2C(C)C
pKi [1]: 7.63 | microsomal CLint [4]: 349 µL/min/mg | solubility kinetic [2]: 43.4 µM (≈ 12.3 µg/mL) | pKi [3]: 7.87

CCN(CC)n1c(=O)c(-c2cn[nH]c2)cc2c(C)nc(N)nc21
solubility kinetic [2]: 434 µM (≈ 136 µg/mL) | pKi [3]: 6.86

Cc1nc(N)nc2c1cc(-c1cn[nH]c1)c(=O)n2NCC(C)C
pKi [3]: 6.08

Cc1nc(N)nc2c1cc(-c1cn[nH]c1)c(=O)n2N1CCCC1
Drug metabolism [5]: Not Active | Drug metabolism [6]: Not Active | pKi [1]: 7.97 | Cmax [7]: 0.144 ng/mL | Vd [8]: 2.9 L/kg | half-life [9]: 54 min | solubility kinetic [2]: 43.1 µM (≈ 13.4 µg/mL) | bioavailability [10]: 52% | clearance [11]: 36.3 mL/min/kg | Drug metabolism [12]: Active | pKi [3]: 7.90

COc1ccc(-c2cc3c(C)nc(N)nc3n(N3CCCC3)c2=O)cn1
pKi [3]: 8.00
